Compound: Cn1cncc1[C@@](N)(c1ccc(Cl)cc1)c1ccc2c(c1)c(-c1cccc(Cl)c1)cc(=O)n2C [Tipifarnib] + CC(=O)Nc1cccc(-n2c(=O)n(C3CC3)c(=O)c3c(Nc4ccc(I)cc4F)n(C)c(=O)c(C)c32)c1 [Trametinib] (partner 0.02 µM)
Experiment: relative viability (nuclei count vs DMSO), 5 days (fraction); higher = more cells survive
Outline: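 Relative viability divides the nuclei count in treated wells by that in vehicle wells. Lung cancer cell lines were seeded in 1536-well plates, dosed by pin tool the next day, and fixed and stained after 5 days in one step with final 0.05% Triton X-100, 1% formaldehyde and 1 ug/ml Hoechst. Dosing was a single drug or a fixed anchor-drug dose plus five library-drug doses (not always all listed) in √10 steps, and values are medians of duplicate plates imaged at 4×.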

| Cell Line | relative viability (first compound 0.01 µM) | relative viability (first compound 0.03162 µM) | relative viability (first compound 0.1 µM) | relative viability (first compound 0.3162 µM) | relative viability (first compound 1 µM) |
| --- | --- | --- | --- | --- | --- |
| NCI-H727 | 0.425 | 0.395 | 0.379 | 0.384 | 0.404 |
| NCI-H838 | 0.47 | 0.483 | 0.434 | 0.431 | 0.374 |
| NCI-H1355 | 0.486 | 0.387 | 0.357 | 0.352 | 0.339 |
| NCI-H1395 | 1.25 | 0.966 | 0.946 | 0.862 | 0.967 |
| NCI-H1437 | 0.591 | 0.596 | 0.619 | 0.406 | 0.446 |
| NCI-H1648 | 0.481 | 0.414 | 0.523 | 0.466 | 0.481 |
| NCI-H1650 | 0.442 | 0.285 | 0.474 | 0.294 | 0.236 |
| NCI-H1651 | 0.827 | 0.754 | 0.781 | 0.832 | 0.802 |
| NCI-H1666 | 0.832 | 0.798 | 0.846 | 0.811 | 0.679 |
| NCI-H1734 | 0.66 | 0.555 | 0.556 | 0.478 | 0.407 |
| NCI-H1755 | 0.793 | 0.732 | 0.718 | 0.723 | 0.714 |
| NCI-H1792 | 0.409 | 0.241 | 0.246 | 0.242 | 0.239 |
| NCI-H1793 | 0.426 | 0.37 | 0.342 | 0.381 | 0.339 |
| NCI-H1915 | 0.298 | 0.269 | 0.214 | 0.201 | 0.195 |
| NCI-H1944 | 0.438 | 0.371 | 0.348 | 0.297 | 0.302 |
| NCI-H1975 | 0.316 | 0.272 | 0.337 | 0.252 | 0.288 |
| NCI-H1993 | 0.575 | 0.476 | 0.485 | 0.594 | 0.61 |
| NCI-H2009 | 0.265 | 0.21 | 0.192 | 0.183 | 0.185 |

| Cell Line | relative viability (first compound 0.01 µM) | relative viability (first compound 0.03162 µM) | relative viability (first compound 0.1 µM) | relative viability (first compound 0.3162 µM) | relative viability (first compound 1 µM) |
| --- | --- | --- | --- | --- | --- |
| NCI-H2023 | 0.46 | 0.373 | 0.403 | 0.228 | 0.234 |
| NCI-H2085 | 0.58 | 0.603 | 0.44 | 0.408 | 0.366 |
| NCI-H2087 | 0.157 | 0.221 | 0.235 | 0.145 | 0.14 |
| NCI-H2126 | 0.585 | 0.496 | 0.528 | 0.515 | 0.482 |
| NCI-H2170 | 1.04 | 0.876 | 0.793 | 0.716 | 0.655 |
| NCI-H2228 | 0.542 | 0.378 | 0.385 | 0.303 | 0.177 |
| NCI-H2342 | 0.778 | 0.968 | 0.803 | 0.547 | 0.65 |
| NCI-H2347 | 0.308 | 0.283 | 0.269 | 0.261 | 0.293 |
| NCI-H2405 | 0.7 | 0.518 | 0.487 | 0.489 | 0.582 |
| NCI-H3122 | 0.244 | 0.215 | 0.213 | 0.211 | 0.185 |
| PC-3 [JPC-3] | 0.726 | 0.61 | 0.531 | 0.494 | 0.478 |
| PC-14 | 0.579 | 0.357 | 0.447 | 0.2 | 0.334 |
| RERF-LC-KJ | 0.828 | 0.961 | 0.776 | 0.652 | 0.646 |
| SK-LU-1 | 0.572 | 0.483 | 0.442 | 0.384 | 0.392 |
| SK-MES-1 | 0.465 | 0.539 | 0.54 | 0.459 | 0.601 |
| SW 1573 | 0.487 | 0.354 | 0.362 | 0.255 | 0.25 |
| UMC-11 | 0.653 | 0.569 | 0.471 | 0.377 | 0.301 |
